Assay results: US20260174875A1 (Novo Nordisk A/S, priority 2023, published 2026)
Like-named read-outs stand apart in the source and are kept apart here. Numbered stars: 1 amine (or outer) side, 2 acyl side, 3 side chain; on linkers, the order of the positions; unused ones are H or OH. Square brackets hold non-standard residues; d marks the D form. Side chains are listed from the residue outwards. * marks the point of attachment. C20 diacid = O=C(O)CCCCCCCCCCCCCCCCCCC(=O)*; C18 diacid = O=C(O)CCCCCCCCCCCCCCCCC(=O)*; γGlu = O=C(O)[C@H](CCC(=O)[*:2])N[*:1]; AEEA = NCCOCCOCC(=O)O; Aib = CC(C)(N)C(=O)O

What was measured:
Format in all cases: cell-based
[1] = molecular target: T1, human GIP receptor (hGIPR) (Homo sapiens, UniProt P48546); assay: GIP receptor assay, method A (CRE-luciferase reporter, BHK cells)
T1 construct: expressed in transfected cells
T1 sequence (P48546 22-466): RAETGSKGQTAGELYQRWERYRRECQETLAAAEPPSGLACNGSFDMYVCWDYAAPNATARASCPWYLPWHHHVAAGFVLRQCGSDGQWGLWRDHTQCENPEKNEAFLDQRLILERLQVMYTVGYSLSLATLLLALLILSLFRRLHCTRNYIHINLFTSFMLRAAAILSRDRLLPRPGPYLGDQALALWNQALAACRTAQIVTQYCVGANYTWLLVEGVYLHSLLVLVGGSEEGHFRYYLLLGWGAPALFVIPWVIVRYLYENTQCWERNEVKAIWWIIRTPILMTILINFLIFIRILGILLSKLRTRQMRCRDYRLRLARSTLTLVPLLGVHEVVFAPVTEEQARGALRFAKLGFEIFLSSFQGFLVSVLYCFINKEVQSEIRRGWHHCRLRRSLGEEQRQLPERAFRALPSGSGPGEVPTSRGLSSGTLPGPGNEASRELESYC
Experimental: To assess how the activation of the receptors is potentially influenced by the presence of human serum albumin (HSA), the in vitro assays were performed in the absence of HSA and presence of 1% (w/v) HSA. Unless stated otherwise the reference to the “GIP receptor assay as described in Example 4” throughout the specification shall refer to the described herein assay procedure method A (hGIPR assay) in the absence of HSA.
Activation of the human GIP receptor leads to increased intra-cellular concentrations of cyclic AMP (cAMP) and the consequent transcription activation from promoters containing multiple copies of the cAMP response element (CRE). It is thus possible to measure GIP receptor activity using a CRE-luciferase reporter gene introduced into Baby Hamster Kidney (BHK) cells co-expressing the human GIP receptor.
Cells at about 80-90% confluency were washed once with PBS (Gibco 14190-094) and detached from the cell flasks with Versene (Gibco, 15040-066). After centrifugation, the cells were counted, resuspended and diluted to approximately 1.5-3.0×10^6 (1.5E+6 to 3.0E+6) cells/mL in Recovery Cell Culture Freezing Medium (Gibco, 12648-010) and stored at −180° C. in suitable aliquots until use.
(§1) The assay buffer consisted of DMEM without phenol red (Gibco, 11880-028) supplemented with 1× GlutaMAX (Gibco, 35050-038), 10 mM HEPES (Gibco, 15630-056), 1% (w/v) ovalbumin (Sigma, A5503) and 0.1% (v/v) Pluronic F-68 (Gibco, 24040-032) either with HSA or without HSA (Sigma, A9511).
On the day before the assay hGIPR BHK Cre-Luc cells were thawed and plated out in 96 well Culture Plates (PerkinElmer/Revvity, 6005680) at 5.0×10^3 (5.0E+3) cells/well in growth medium as described above. The plates were then incubated for 21-23 hours at 37° C. with 5% CO2. On the day of the assay GLP-1-/GIP-/amylin-receptor tri-agonists or reference compounds were diluted in assay buffer using a 7-point, 10-fold titration plus a blank (absence of compound). Each compound was diluted and tested in duplicates in each experiment. In the plates containing the cells the growth medium was removed, and cells were washed twice with 100 μL PBS (Gibco 14190-094). 50 μL of the test compound dilutions were added to the plates containing cells preceded by 50 μL assay buffer with or without 2% (w/v) HSA (Sigma, A9511). The cell plates were incubated for 3 hours in a 5% CO2 incubator at 37° C. The plates were then transferred to room temperature followed by addition of 100 μL steadylite Plus™ (PerkinElmer/Revvity, 6066759). The plates were sealed and shaken for 30 minutes at room temperature while protected from light. Finally, luminescence (as an indicator of receptor activation) was measured on a Mithras reader (Berthold Technologies, DE). The EC50-values [pM] were calculated by non-linear curve fitting applying a four-parameter logistic model (Hill slope=“shared value for all datasets”) using GraphPad Prism (GraphPad Software, Boston, MA, USA).

[2] = molecular target: T2, human GLP-1 receptor (hGLP-1R) (Homo sapiens, UniProt P43220); assay: GLP-1 receptor assay, method A (CRE-luciferase reporter, BHK cells)
T2 construct: expressed in transfected cells
T2 sequence (P43220 24-463): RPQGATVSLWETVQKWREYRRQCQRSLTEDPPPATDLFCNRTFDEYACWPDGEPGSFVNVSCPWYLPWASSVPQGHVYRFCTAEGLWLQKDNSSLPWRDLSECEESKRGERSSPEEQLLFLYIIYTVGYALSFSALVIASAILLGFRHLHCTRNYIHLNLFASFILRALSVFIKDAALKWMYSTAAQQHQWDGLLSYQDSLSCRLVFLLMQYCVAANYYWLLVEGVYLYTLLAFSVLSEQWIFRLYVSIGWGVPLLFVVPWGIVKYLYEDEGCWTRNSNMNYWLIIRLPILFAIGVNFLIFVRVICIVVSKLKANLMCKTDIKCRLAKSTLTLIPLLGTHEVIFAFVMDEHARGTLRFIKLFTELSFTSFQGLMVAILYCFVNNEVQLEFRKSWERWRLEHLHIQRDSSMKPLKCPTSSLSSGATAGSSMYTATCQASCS
Experimental: (§2) To assess how the activation of the receptors is potentially influenced by the presence of human serum albumin (HSA), the in vitro assays were performed in the absence of HSA and presence of 1% (w/v) HSA.
Cells at approximately 80-90% confluence were washed once in PBS (Gibco 14190-094) and loosened from the cell flasks with Versene (Gibco, 15040-033). […] Cells were aliquoted and stored at −180° C. until use.
as §1
Frozen stocks of hGLP-1R BHK CRE-Luc cells were thawed in a 37° C. water bath, washed once in PBS (Gibco 14190-094) and diluted to 1.5×10^6 (1.5E+6) cells/mL in assay buffer with or without 2% (w/v) HSA (Sigma, A9511). […] The assay plates were incubated for 3 hours at 37° C. in 5% CO2, left at room temperature for 5 minutes after which 100 μL steadylite Plus™ (PerkinElmer/Revvity, 6066759) was added to each well. Plates were sealed and incubated at room temperature with gentle shaking for 30 minutes while protected from light. Luminescence was detected on a luminescence plate reader e.g., a Synergy 2 (BioTek).

[3] = molecular target: T3, human amylin receptor (hAMYR3) (Homo sapiens, UniProt O60896+P30988); assay: Amylin receptor assay, method A (CRE-luciferase reporter, BHK cells)
T3 construct: host or cells: BHK cells (Hollex-1 line expressing hCTR(a) and CRE-Luc), further transfected with human RAMP3
T3 sequence (P30988 25-474): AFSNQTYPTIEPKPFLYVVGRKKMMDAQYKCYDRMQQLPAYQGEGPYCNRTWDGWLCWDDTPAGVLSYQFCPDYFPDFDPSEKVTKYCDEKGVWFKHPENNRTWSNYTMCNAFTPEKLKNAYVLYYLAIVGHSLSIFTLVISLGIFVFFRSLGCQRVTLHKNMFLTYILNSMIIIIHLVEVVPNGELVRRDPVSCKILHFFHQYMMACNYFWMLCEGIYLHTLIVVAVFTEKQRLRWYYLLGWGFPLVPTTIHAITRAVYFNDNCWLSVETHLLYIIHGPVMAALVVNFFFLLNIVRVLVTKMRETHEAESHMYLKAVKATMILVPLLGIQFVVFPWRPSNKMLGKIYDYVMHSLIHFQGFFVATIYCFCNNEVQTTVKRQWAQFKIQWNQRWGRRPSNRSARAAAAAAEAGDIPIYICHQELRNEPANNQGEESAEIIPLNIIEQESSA
T3 sequence (O60896 24-148): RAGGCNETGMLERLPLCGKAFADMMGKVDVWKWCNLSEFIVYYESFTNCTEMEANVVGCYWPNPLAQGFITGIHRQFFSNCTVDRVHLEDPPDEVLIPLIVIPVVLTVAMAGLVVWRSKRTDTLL
Experimental: as §2
It is thus possible to measure hAMYR3 activity using a CRE-luciferase reporter gene introduced into Baby Hamster Kidney (BHK) cells co-expressing the hAMYR3.
The cell line was further transfected with human receptor modifying protein 3 (RAMP3) using standard methods.
After centrifugation, the cell pellet was resuspended and diluted to approximately 2.5-4.0×10^6 (2.5E+6 to 4.0E+6) cells/mL in Recovery™ Cell Culture Freezing Medium (Gibco, 12648-010). Cells were aliquoted and stored at −180° C. until use.
The assay buffer consisted of DMEM without phenol red (Gibco, 11880-028) supplemented with 1× GlutaMAX (Gibco, 35050-038), 10 mM HEPES (Gibco, 15630-056) and 1% (w/v) ovalbumin (Sigma, A5503) either with or without 0.1% (v/v) Pluronic F-68 (Gibco, 24040-032) and either with or without HSA (Sigma, A9511).
The plate was incubated over night at 37° C. in 5% CO2. […] Luminescence was detected on a luminescence plate reader e.g., a Synergy 2 (BioTek).

[4] = hGIPR Potency, 1% HSA, EC50, method A, in the presence of 1% HSA
[5] = method A, absence of HSA, read-out: hGIPR Potency, no HSA, EC50
[6] = hGLP-1R Potency, 1% HSA, EC50, method A, in the presence of 1% HSA
[7] = method A, absence of HSA, read-out: hGLP-1R Potency, no HSA, EC50
[8] = hAMYR3 Potency, 1% HSA, EC50, method A, in the presence of 1% HSA
[9] = method A, absence of HSA, read-out: hAMYR3 Potency, no HSA, EC50

| Substance | EC50 [1, 4] | EC50 [1, 5] | EC50 [2, 6] | EC50 [2, 7] | EC50 [3, 8] | EC50 [3, 9] |
| --- | --- | --- | --- | --- | --- | --- |
| H[Aib]HGTFTSDYSILLEEQAAREFIEWLLAGGPSRGAPPPSGGGEASELSTAALGRLSAELHK([AEEA-AEEA-γGlu-C18 diacid])LATLPRTETGSGSP-NH2 [Compound 70] | 0.0191 nM | 0.00589 nM | 0.0184 nM | 0.00348 nM | 0.0594 nM | 0.00453 nM |
| Y[Aib]EGTFTSDYSILLEEQAAREFIEWLLAGGPSK([AEEA-AEEA-γGlu-C18 diacid])GAEASELSTAALGRLSAELHELATLPRTETGSGSP-NH2 [Compound 32] | – | 0.00809 nM | – | 0.0276 nM | – | 0.0101 nM |
| Y[Aib]EGTFTSDYSILLEEQAAREFIEWLLAGGPSSGALQAPGQAPLASHLSTAQTARLSAELHK([AEEA-AEEA-γGlu-C18 diacid])LATLPRTETGSGSP-NH2 [Compound 105] | 0.0125 nM | 0.00308 nM | 0.0489 nM | 0.0126 nM | 0.113 nM | 0.00288 nM |
| Y[Aib]EGTFTSDYSILLEEQAAREFIEWLLAGGPSSGAGQAPGQAPGASHLSTAQTQRLSAELHRLATLPK([AEEA-AEEA-γGlu-C20 diacid])TETGSGSP-NH2 [Compound 76] | 0.0111 nM | 0.00282 nM | 0.0636 nM | 0.0199 nM | 0.43 nM | 0.00311 nM |
| H[Aib]HGTFTSDYSILLEEQAAREFIEWLLAGGPSSGALQAPGQAPGASHLSTAQTARLSAELHRLATLPK([AEEA-AEEA-γGlu-C18 diacid])TETGSGSP-NH2 [Compound 107] | 0.00876 nM | 0.00387 nM | 0.0139 nM | 0.0041 nM | 0.0931 nM | 0.00307 nM |
| Y[Aib]EGTFTSDYSILLEEQAAREFIEWLLAGGPSK([AEEA-AEEA-γGlu-C18 diacid])GEASELSTAALARLSAELHRLATLPRTETGSGSP-NH2 [Compound 28] | – | 0.0035 nM | – | 0.096 nM | – | 0.00228 nM |
| H[Aib]HGTFTSDYSILLEEQAAREFIEWLLAGGPSSGAGQAPGQAPGASHLSTAQTARLSAELHK([AEEA-AEEA-γGlu-C20 diacid])LATLPRTETGSGSP-NH2 [Compound 104] | 0.0173 nM | 0.00357 nM | 0.0191 nM | 0.00416 nM | 0.293 nM | 0.00149 nM |
| H[Aib]HGTFTSDYSILLEEQAAREFIEWLLAGGPSK([AEEA-AEEA-γGlu-C18 diacid])GAPPPSGGGASELSTAALGRLSAELHRLATLPRTETGSGSP-NH2 [Compound 86] | 0.122 nM | 0.00511 nM | 0.13 nM | 0.00669 nM | 0.0584 nM | 0.00331 nM |
| H[Aib]HGTFTSDYSILLEEQAAREFIEWLLAGGPSSGALAQTLAQTLASHLSTAQTQRLSAELHK([AEEA-AEEA-γGlu-C18 diacid])LATLPRTETGSGSP-NH2 [Compound 51] | 0.0619 nM | 0.00837 nM | 0.0322 nM | 0.00768 nM | 0.0571 nM | 0.00619 nM |

Now those with a lower EC50 [1, 5], led by results:

| EC50 [1, 4] | EC50 [1, 5] | EC50 [2, 6] | EC50 [2, 7] | EC50 [3, 8] | EC50 [3, 9] | Substance |
| --- | --- | --- | --- | --- | --- | --- |
| 0.0122 nM | 0.00224 nM | 0.047 nM | 0.011 nM | 0.134 nM | 0.00326 nM | Y[Aib]EGTFTSDYSILLEEQAAREFIEWLLAGGPSSGAGQAPGQAPGASHLSTAQTQRLSAELHQLK([AEEA-AEEA-γGlu-C18 diacid])TLPRTETGSGSP-NH2 [Compound 102] |
| – | 0.00234 nM | – | 0.0515 nM | – | 0.00424 nM | Y[Aib]EGTFTSDYSILLEEQAAREFIEWLLAGGPSK([AEEA-AEEA-γGlu-C18 diacid])GALAQTLFVNQASELSTAALGRLSAELHELATLPRTETGSGSP-NH2 [Compound 24] |
| 0.132 nM | 0.00263 nM | 0.112 nM | 0.00478 nM | 0.0624 nM | 0.00469 nM | H[Aib]HGTFTSDYSILLEEQAAREFIEWLLAGGPSK([AEEA-AEEA-γGlu-C18 diacid])GALAQTLGTNEASHLSTAQTQRLSAELHELATLPRTETGSGSP-NH2 [Compound 45] |
| – | 0.0012 nM | – | 0.0153 nM | – | 0.00517 nM | Y[Aib]EGTFTSDYSILLEEQAAREFIEWLLAGGPSK([AEEA-AEEA-γGlu-C18 diacid])GALAQTLGTNEASELSTAALGRLSAELHELATLPRTETGSGSP-NH2 [Compound 23] |
| – | 0.00163 nM | – | 0.0233 nM | – | 0.00549 nM | Y[Aib]EGTFTSDYSILLEEQAAREFIEWLLAGGPSK([AEEA-AEEA-γGlu-C18 diacid])GGGGEGGGEGEASHLSTAQTQRLSAELHELATLPRTETGSGSP-NH2 [Compound 40] |
